Columns and labels:
[1] = test system: P. falciparum 7G8 (Brazil); experiment: [3H]-hypoxanthine incorporation assay, 7G8; type: cell-based, Plasmodium falciparum; conditions: read-out: 50% inhibitory concentration (IC50); 7G8, resistance CQ, PYR, CYC; mean ± SD
[2] = test system: Cam3.II^C580Y and Cam3.II^rev 0–3 h postinvasion rings; experiment: Ring-stage survival assay (RSA0-3h); type: cell-based, P. falciparum; conditions: 6-h pulse, 35–700 nM, survival assessed 66 h later
Experimental: Ring-stage survival assays (RSA0-3h) were carried out at Columbia University Medical Center (New York, United States) as previously described. Parasite cultures were synchronized using 5% sorbitol (Sigma-Aldrich), and schizonts were incubated in RPMI-1640 containing 15 units/ml sodium heparin for 15 min at 37°C to disrupt agglutinated erythrocytes. These schizonts were concentrated over a gradient of 75% Percoll (Sigma-Aldrich), washed once in RPMI-1640, and incubated for 3 h with fresh erythrocytes to allow time for merozoite invasion. Cultures were then subjected again to sorbitol treatment to eliminate remaining schizonts. The 0–3 h postinvasion rings were adjusted to 1% parasitemia and 2% hematocrit in 1 mL volumes (in 48-well plates) and exposed to a range of ACT-451840 drug concentration (700–35 nM) or 0.1% DMSO for 6 h. Duplicate wells were established for each parasite line ± drug concentration. One-mL cultures were then transferred to 15-mL conical tubes, centrifuged at 800xg for 5 min to pellet the cells, and the supernatants carefully removed. As a washing step to remove drug, 10 mL culture medium were added to each tube, and the cells were resuspended, centrifuged, and the medium was aspirated. […] Stained parasites were detected using a BD Accuri 6 Flow Cytometer and analyzed using FlowJo Software. IC50 values were determined by nonlinear regression using GraphPad Prism 6.0. […]

[3] = test system: P. falciparum clinical isolates (Papua, Indonesia); experiment: Ex vivo drug susceptibility, P. falciparum clinical isolates; type: cell-based, Plasmodium falciparum; conditions: P. falciparum clinical isolates, n = 27 (closed symbols); read-out: median IC50
Experimental: […]. Thick blood films made from each well were stained with 5% Giemsa solution for 30 min and examined microscopically. The number of schizonts per 200 asexual-stage parasites was determined for each drug concentration and normalized to the control well.

[4] = Safety pharmacology in dogs; type: in vivo; conditions: dogs dosed up to 500 mg/kg

Compound: CC(=O)N1CCN(c2ccc(CN(C(=O)/C=C/c3ccc(C(C)(C)C)cc3)[C@@H](Cc3ccccc3)C(=O)N3CCN(Cc4ccc(C#N)cc4)CC3)cc2)CC1 [ACT-451840]
- IC50 [1]: 0.3 ± 0.1 nM
- ring-stage survival rates, wild-type K13 allele versus C580Y mutation [2]: No difference in survival rates
- IC50 [3]: 2.5 nM
- effect on cardiovascular parameters [4]: no effect
